Data on 11 compounds can be found in ChEMBL document CHEMBL1201862, “PubChem BioAssay data set” (2004).

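Cultured in 96-well plates, cells were exposed to test compound for 48 hours across five concentrations. Here, GI50 denotes the concentration required for 50% inhibition of growth.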 The source made the active and inactive calls. Cut-off read from the data, not from the text of the source: active = GI50 up to about 1.1 µM and inactive = higher.

Some test systems named below: 786-0; A498; BT-549; CAKI-1; CCRF-CEM; COLO 205; EKVX; M14; MCF7; MOLT-4; Malme-3M; NCI-H522; OVCAR-8; PC-3; SK-MEL-28; SK-MEL-2; UACC-257; MDA-MB-231; NCI-H226.
Common to all, as to assay: inhibition of tumour cell growth, NCI panel, 48 h

`O=C(/C=C/c1ccc(O)c(O)c1)NCCc1ccc(-c2ccccc2)cc1`: the GI50 in the assay on 786-0 was 49.7 µM (inactive); in the assay with A498 it was > 100 µM (inactive); in the assay on BT-549, 74.5 µM (inactive); in the assay on CAKI-1, 40.8 µM (inactive); with CCRF-CEM, 26.5 µM (inactive); in the assay on COLO 205 it was 78.3 µM (inactive). Further, the GI50 in the assay with EKVX was > 100 µM (inactive); in the assay with M14, 33.4 µM (inactive); in the assay on MCF7 it was 32.3 µM (inactive); in the assay on MOLT-4, 41.3 µM (inactive); in the assay with Malme-3M, 17.9 µM (inactive); in the assay on NCI-H522, > 100 µM (inactive). Further, the GI50 is > 100 µM (inactive) with OVCAR-8; > 100 µM (inactive) in the assay on PC-3; 59.8 µM (inactive) with SK-MEL-28; > 100 µM (inactive) in the assay with SK-MEL-2; > 100 µM (inactive) in the assay on UACC-257.

For `Cc1c(C)n(-c2ccccc2)c2nc(S(C)(=O)=O)nc(S(C)(=O)=O)c12`, the GI50 in the assay with 786-0 was 1.28 µM (inactive); in the assay with A498 it was 14.1 µM (inactive); in the assay with CAKI-1, 0.171 µM (active); in the assay with CCRF-CEM, 0.634 µM (active); in the assay on COLO 205, 1.8 µM (inactive); in the assay on EKVX, 5.41 µM (inactive). For the same compound, the GI50 is 1.62 µM (inactive) in the assay with M14; 1.25 µM (inactive) in the assay on MCF7; 5.73 µM (inactive) in the assay on MDA-MB-231; 1.48 µM (inactive) in the assay on MOLT-4; 1.4 µM (inactive) with Malme-3M; 21.4 µM (inactive) in the assay on NCI-H226. Further, the GI50 with NCI-H522 is 1.75 µM (inactive); in the assay on OVCAR-8, 2.19 µM (inactive); with PC-3, 5.06 µM (inactive); in the assay with SK-MEL-28, 2.53 µM (inactive); in the assay with SK-MEL-2, 2.07 µM (inactive); in the assay with UACC-257, 1.64 µM (inactive).

Take `O=C1NC(=O)C(CC(C(=O)C(=O)Nc2ccccc2Cl)C(=O)c2ccc3ccccc3c2)C(=O)N1` (stereo unspecified): the GI50 in the assay on 786-0, with BT-549, in the assay with CAKI-1, with CCRF-CEM, in the assay on COLO 205 and in the assay on EKVX was > 100 µM (inactive) throughout. The GI50 in the assay with M14, in the assay with MCF7, with MDA-MB-231, in the assay with MOLT-4, with NCI-H226 and in the assay with NCI-H522 was > 100 µM (inactive) in each case. The GI50 in the assay on OVCAR-8, in the assay with PC-3, in the assay on SK-MEL-28, in the assay with SK-MEL-2 and in the assay on UACC-257 was > 100 µM (inactive) in each case.

For the compound `CC1(C)C=[N+]([O-])C(C)(C)N1O`, the GI50 in the assay on 786-0, in the assay on BT-549, in the assay on CAKI-1, in the assay on CCRF-CEM, in the assay on COLO 205 and in the assay on EKVX was > 10 µM (inactive) each time. The GI50 in the assay with M14, in the assay on MCF7, in the assay with MDA-MB-231, with MOLT-4, in the assay on Malme-3M and in the assay on NCI-H226 was > 10 µM (inactive) throughout. Moreover, the GI50 with NCI-H522, in the assay on OVCAR-8, in the assay with PC-3, with SK-MEL-2 and with UACC-257 was > 10 µM (inactive) throughout.

On to `Nc1nc(Cl)cc(/N=N\c2ccccc2)n1`, for which the GI50 was 30.6 µM (inactive) with 786-0; 61.5 µM (inactive) with A498; 72.4 µM (inactive) in the assay on BT-549; 37.6 µM (inactive) in the assay with CAKI-1; 13 µM (inactive) in the assay with CCRF-CEM; 27.5 µM (inactive) in the assay with COLO 205. The GI50 in the assay on EKVX is 37.2 µM (inactive); in the assay on M14, 31.8 µM (inactive); in the assay on MCF7 it was 48.1 µM (inactive); in the assay on MDA-MB-231 it was 22.1 µM (inactive); in the assay on MOLT-4, 18.5 µM (inactive); in the assay on Malme-3M, 83.8 µM (inactive). The GI50 is 45.2 µM (inactive) with NCI-H226; 30.6 µM (inactive) in the assay on NCI-H522; 33.2 µM (inactive) in the assay with OVCAR-8; > 100 µM (inactive) in the assay with SK-MEL-28; 20.8 µM (inactive) with SK-MEL-2; 36.1 µM (inactive) in the assay with UACC-257.

`COC(=O)c1ccc(/C=C2\Cc3ccccc3C2=O)cc1`: the GI50 with 786-0, in the assay with BT-549, in the assay on CAKI-1, with CCRF-CEM, in the assay with COLO 205 and with EKVX was > 100 µM (inactive) each time. In addition, the GI50 in the assay with M14, in the assay on MCF7, in the assay with MDA-MB-231, with MOLT-4, with NCI-H522 and in the assay with OVCAR-8 was > 100 µM (inactive) throughout. The GI50 in the assay with PC-3, in the assay on SK-MEL-28 and in the assay with UACC-257 was > 100 µM (inactive) throughout.

Take `CC(=O)OCC1OC(NC(=S)CCSc2nc3ccccc3c(=O)n2-c2ccccc2)C(OC(C)=O)C(OC(C)=O)C1OC(C)=O` (stereo unspecified): the GI50 in the assay on 786-0 was 63.2 µM (inactive); in the assay on BT-549 it was 31.4 µM (inactive); with CAKI-1, > 100 µM (inactive); with CCRF-CEM, 27.2 µM (inactive); with COLO 205, 40.1 µM (inactive); in the assay with EKVX, 57.8 µM (inactive). Also, the GI50 in the assay on M14 is 46.1 µM (inactive); with MCF7 it was > 100 µM (inactive); in the assay on MDA-MB-231, > 100 µM (inactive); with MOLT-4, 30 µM (inactive); with Malme-3M, > 100 µM (inactive); in the assay on NCI-H226, 50.5 µM (inactive). Also, the GI50 is 25.6 µM (inactive) in the assay on NCI-H522; > 100 µM (inactive) in the assay with OVCAR-8; 40.9 µM (inactive) with PC-3; 59.6 µM (inactive) with SK-MEL-28; 22.1 µM (inactive) with SK-MEL-2; 30.4 µM (inactive) with UACC-257.

As to `COc1cc(C2SC(=N)Nc3c2c(C)nn3C(=O)c2ccc(Cl)cc2)cc(OC)c1OC` (stereo unspecified), the GI50 with 786-0, in the assay on BT-549, in the assay with CAKI-1, in the assay on CCRF-CEM, in the assay on COLO 205 and in the assay on EKVX was > 10 µM (inactive) in each case. For the same compound, the GI50 in the assay on M14, with MCF7, in the assay with MDA-MB-231, in the assay with MOLT-4, in the assay on Malme-3M and in the assay on NCI-H226 was > 10 µM (inactive) in each case. The GI50 with NCI-H522, in the assay on OVCAR-8, in the assay on PC-3, in the assay with SK-MEL-28, in the assay on SK-MEL-2 and in the assay with UACC-257 was > 10 µM (inactive) in each case.

Consider `COc1cc(/C=N/NC(=O)c2c(Cl)c(Cl)c(Cl)c(Cl)c2-c2nc3cc(C(=O)c4ccccc4)ccc3[nH]2)ccc1O`, for which the GI50 in the assay with 786-0 is 37.2 µM (inactive); with BT-549, 32.7 µM (inactive); in the assay with CAKI-1 it was 62.2 µM (inactive); in the assay on CCRF-CEM, 23 µM (inactive); in the assay on COLO 205, 24.8 µM (inactive); in the assay with EKVX it was 63.8 µM (inactive). Moreover, the GI50 with M14 is 34.3 µM (inactive); in the assay with MCF7, 26.5 µM (inactive); in the assay with MDA-MB-231 it was 26.8 µM (inactive); in the assay with MOLT-4, 16.4 µM (inactive); with Malme-3M it was 54.8 µM (inactive); in the assay on NCI-H226 it was 34.2 µM (inactive). Moreover, the GI50 in the assay with NCI-H522 is 22.1 µM (inactive); in the assay on OVCAR-8, 59.3 µM (inactive); in the assay on PC-3 it was 35.2 µM (inactive); with SK-MEL-28, 49.2 µM (inactive); in the assay on SK-MEL-2, 39.3 µM (inactive); with UACC-257, 60.8 µM (inactive).

In the case of `O=c1[nH]c(NCc2ccncc2)nc2[nH]cnc12`, the GI50 with 786-0, with BT-549, in the assay on CAKI-1, in the assay with CCRF-CEM, in the assay with COLO 205 and with EKVX was > 100 µM (inactive) in each case. Further, the GI50 with M14, in the assay with MCF7, in the assay with MDA-MB-231, in the assay on MOLT-4, in the assay on Malme-3M and in the assay with NCI-H226 was > 100 µM (inactive) throughout. The GI50 in the assay on NCI-H522, in the assay on OVCAR-8, with PC-3, in the assay on SK-MEL-2 and in the assay on UACC-257 was > 100 µM (inactive) in each case.

Take `CN(C)c1nc2n(CCO)ccnc-2c(=O)n1`: the GI50 with 786-0, in the assay with A498, in the assay with BT-549, with CAKI-1, with CCRF-CEM and in the assay with COLO 205 was > 100 µM (inactive) in each case. In addition, the GI50 in the assay on EKVX, with M14, in the assay on MDA-MB-231, in the assay with MOLT-4, with Malme-3M and with NCI-H226 was > 100 µM (inactive) in each case. The GI50 in the assay on NCI-H522, with OVCAR-8, in the assay with PC-3, in the assay with SK-MEL-28, with SK-MEL-2 and with UACC-257 was > 100 µM (inactive) each time.
